For 36 compounds, IC50 results are on record in patent US20090105283A1, “3-HYDROQUINAZOLIN-4-ONE DERIVATIVES FOR USE AS STEAROYL CoA DESATURASE INHIBITORS” (priority 2007, published 2009).

The target in this assay is T1, stearoyl-CoA desaturase (SCD) (Rattus norvegicus, UniProt P07308).
T1 construct: The microsomes were quickly thawed and added to assay buffer so that a concentration of 0.4 mg/ml was achieved; from tissue
T1 sequence (P07308 1-358): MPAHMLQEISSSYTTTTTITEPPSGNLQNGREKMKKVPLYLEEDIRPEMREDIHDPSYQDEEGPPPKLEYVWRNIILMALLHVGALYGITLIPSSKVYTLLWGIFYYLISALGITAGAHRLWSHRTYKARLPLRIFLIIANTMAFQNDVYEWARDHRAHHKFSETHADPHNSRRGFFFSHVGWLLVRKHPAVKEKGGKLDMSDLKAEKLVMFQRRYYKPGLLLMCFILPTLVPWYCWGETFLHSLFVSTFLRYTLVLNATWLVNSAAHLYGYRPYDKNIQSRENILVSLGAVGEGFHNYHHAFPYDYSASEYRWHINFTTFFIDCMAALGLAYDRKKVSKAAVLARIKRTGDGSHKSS
The assay is described as follows: SCD assay with rat liver microsomes ([3H]stearoyl CoA, adapted from Talamo and Bloch). The conditions noted are these: Table 2 (Example 21, procedures of Example 20); rat liver microsomes, [3H]stearoyl CoA substrate. It counts as biochemical. The essentials:
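Liver microsomes came from diet-induced male Sprague Dawley rats and were used at 0.2 mg/ml final. Assay buffer was Tris pH 7.2 with NADH, ATP, CoA, MgCl2 and 0.1% BSA. Compounds were preincubated 30 min, then reacted 45 min at room temperature with [3H]stearoyl-CoA; after TCA stop and Bio-Bead cleanup, supernatant radioactivity was counted by scintillation.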
On the technique in general: Liver microsomes are vesicles of endoplasmic reticulum, rich in cytochrome P450 enzymes.
In the case of `CC(=O)Nc1ccc2ncn(Cc3ccc(Cl)c(Cl)c3)c(=O)c2c1` [compound 17, N-(3-(3,4-dichlorobenzyl)-4-oxo-3,4-dihydroquinazolin-6-yl)acetamide], the IC50 (in general, the concentration at which inhibition is half-maximal) was 3900 nM.
As for `CC(=O)Nc1ccc2ncn(Cc3ccc(F)c(F)c3)c(=O)c2c1` [compound 18, N-(3-(3,4-difluorobenzyl)-4-oxo-3,4-dihydroquinazolin-6-yl)acetamide], the figure is 26000 nM.
`CC(=O)Nc1ccc2ncn(Cc3ccc(C(F)(F)F)cc3)c(=O)c2c1` [compound 19, N-(4-oxo-3-(4-(trifluoromethyl)benzyl)-3,4-dihydroquinazolin-6-yl)acetamide]: the half-inhibitory concentration (IC50) is 28000 nM.
As for `Cc1ccc(Cn2cnc3ccc(NC(=O)OCc4ccccc4)cc3c2=O)cc1C` [compound 20, benzyl 3-(3,4-dimethylbenzyl)-4-oxo-3,4-dihydroquinazolin-6-ylcarbamate], the figure is 230 nM; as for `CC(=O)OCC(=O)Nc1ccc2ncn(Cc3ccc(C)c(C)c3)c(=O)c2c1` [compound 21, 2-(3-(3,4-dimethylbenzyl)-4-oxo-3,4-dihydroquinazolin-6-ylamino)-2-oxoethyl acetate], 470 nM.
To `Cc1ccc(Cn2cnc3ccc(NC(=O)CO)cc3c2=O)cc1C` [compound 22, N-(3-(3,4-dimethylbenzyl)-4-oxo-3,4-dihydroquinazolin-6-yl)-2-hydroxyacetamide] belongs 280 nM; to `CC(c1ccc(Cl)c(Cl)c1)n1cnc2ccc(NC(=O)CO)cc2c1=O` (stereo not drawn) [compound 23, N-(3-(1-(3,4-dichlorophenyl)ethyl)-4-oxo-3,4-dihydroquinazolin-6-yl)-2-hydroxyacetamide], 210 nM; to `CC(=O)OCC(=O)Nc1ccc2ncn(CCCc3ccccc3)c(=O)c2c1` [compound 24, 2-oxo-2-(4-oxo-3-(3-phenylpropyl)-3,4-dihydroquinazolin-6-ylamino)ethyl acetate], 1300 nM.
For the compound `CCC(c1ccc(Cl)c(Cl)c1)n1cnc2ccc(NC(=O)COC(C)=O)cc2c1=O` (stereo not drawn) [compound 25, 2-(3-(1-(3,4-dichlorophenyl)propyl)-4-oxo-3,4-dihydroquinazolin-6-ylamino)-2-oxoethyl acetate], the IC50 was determined as 500 nM.
As for `CCC(c1ccc(Cl)c(Cl)c1)n1cnc2ccc(NC(=O)CO)cc2c1=O` (stereo not drawn) [compound 26, N-(3-(1-(3,4-dichlorophenyl)propyl)-4-oxo-3,4-dihydroquinazolin-6-yl)-2-hydroxyacetamide], the figure is 3300 nM; as for `O=C(CO)Nc1ccc2ncn(CCCc3ccccc3)c(=O)c2c1` [compound 27, 2-hydroxy-N-(4-oxo-3-(3-phenylpropyl)-3,4-dihydroquinazolin-6-yl)acetamide], 4500 nM; as for `CC(=O)OCC(=O)Nc1ccc2ncn(Cc3ccccc3C(F)(F)F)c(=O)c2c1` [compound 28, 2-oxo-2-(4-oxo-3-(2-(trifluoromethyl)benzyl)-3,4-dihydroquinazolin-6-ylamino)ethyl acetate], 1500 nM.
To `O=C(CO)Nc1ccc2ncn(Cc3cccc(-c4ccccc4)c3)c(=O)c2c1` [compound 29, N-(3-(biphenyl-3-ylmethyl)-4-oxo-3,4-dihydroquinazolin-6-yl)-2-hydroxyacetamide] belongs 3900 nM; to `CCC(c1ccc(Cl)c(Cl)c1)n1cnc2ccc(NC(=O)OCc3ccccc3)cc2c1=O` (stereo not drawn) [compound 30, benzyl 3-(1-(3,4-dichlorophenyl)propyl)-4-oxo-3,4-dihydroquinazolin-6-ylcarbamate], 1400 nM.
To `O=C(CO)Nc1ccc2ncn(Cc3ccc4ccccc4c3)c(=O)c2c1` [compound 31, 2-hydroxy-N-(3-(naphthalen-2-ylmethyl)-4-oxo-3,4-dihydroquinazolin-6-yl)acetamide] belongs 340 nM.
The compound `O=C(Nc1ccc2ncn(Cc3ccc4ccccc4c3)c(=O)c2c1)OCc1ccccc1` [compound 32, benzyl 3-(naphthalen-2-ylmethyl)-4-oxo-3,4-dihydroquinazolin-6-ylcarbamate] showed a half-inhibitory concentration (IC50) of 720 nM.
To `O=C(CO)Nc1ccc2c(=O)n(Cc3ccc4ccccc4c3)cnc2c1` [compound 33, 2-hydroxy-N-(3-(naphthalen-2-ylmethyl)-4-oxo-3,4-dihydroquinazolin-7-yl)acetamide] belongs 2800 nM; to `C[C@H](c1ccc(Cl)c(C(F)(F)F)c1)n1cnc2ccc(NC(=O)CO)cc2c1=O` [compound 34, (R)—N-(3-(1-(4-chloro-3-(trifluoromethyl)phenyl)ethyl)-4-oxo-3,4-dihydroquinazolin-6-yl)-2-hydroxyacetamide], 480 nM; to `C[C@@H](c1ccc(Cl)c(Cl)c1)n1cnc2cc(NC(=O)CO)ccc2c1=O` [compound 35, (S)—N-(3-(1-(3,4-dichlorophenyl)ethyl)-4-oxo-3,4-dihydroquinazolin-7-yl)-2-hydroxyacetamide], 1800 nM.
As for `C[C@H](c1ccc(Cl)c(Cl)c1)n1cnc2cc(NC(=O)CO)ccc2c1=O` [compound 36, (R)—N-(3-(1-(3,4-dichlorophenyl)ethyl)-4-oxo-3,4-dihydroquinazolin-7-yl)-2-hydroxyacetamide], the figure is 58 nM; as for `O=C(CO)Nc1ccc2ncn(CCc3ccc(Cl)cc3)c(=O)c2c1` [compound 37, N-(3-(4-chlorophenethyl)-4-oxo-3,4-dihydroquinazolin-6-yl)-2-hydroxyacetamide], 20 nM; as for `O=C(CO)Nc1ccc2ncn(CCc3cccc(Cl)c3)c(=O)c2c1` [compound 38, N-(3-(3-chlorophenethyl)-4-oxo-3,4-dihydroquinazolin-6-yl)-2-hydroxyacetamide], 5800 nM.
As for `O=C(CO)Nc1ccc2ncn(CCc3ccc(Cl)cc3Cl)c(=O)c2c1` [compound 39, N-(3-(2,4-dichlorophenethyl)-4-oxo-3,4-dihydroquinazolin-6-yl)-2-hydroxyacetamide], the figure is 4900 nM; as for `O=C(Nc1ccc2ncn(Cc3cccc(C(F)(F)F)c3)c(=O)c2c1)OCc1ccccc1` [compound 40, benzyl 4-oxo-3-(3-(trifluoromethyl)benzyl)-3,4-dihydroquinazolin-6-ylcarbamate], 1400 nM.
In the case of `O=C(Nc1ccc2ncn(CCCOc3ccccc3C(F)(F)F)c(=O)c2c1)OCc1ccccc1` [compound 41, benzyl 4-oxo-3-(3-(2-(trifluoromethyl)phenoxy)propyl)-3,4-dihydroquinazolin-6-ylcarbamate], the 50% inhibitory concentration (IC50) amounted to 69 nM.
`O=C(CO)Nc1ccc2ncn(CCOc3cc(Cl)ccc3Cl)c(=O)c2c1` [compound 42, N-(3-(2-(2,5-dichlorophenoxy)ethyl)-4-oxo-3,4-dihydroquinazolin-6-yl)-2-hydroxyacetamide] returned a 50% inhibitory concentration (IC50) of 290 nM.
To `O=C(CO)Nc1ccc2ncn(CCCOc3cc(Cl)ccc3Cl)c(=O)c2c1` [compound 43, N-(3-(3-(2,5-dichlorophenoxy)propyl)-4-oxo-3,4-dihydroquinazolin-6-yl)-2-hydroxyacetamide] belongs 55 nM; to `O=C(Nc1ccc2ncn(CCCOc3cc(Cl)ccc3Cl)c(=O)c2c1)OCc1ccccc1` [compound 44, benzyl 3-(3-(2,5-dichlorophenoxy)propyl)-4-oxo-3,4-dihydroquinazolin-6-ylcarbamate], 55 nM; to `O=C(CO)Nc1ccc2ncn(CCCOc3ccccc3C(F)(F)F)c(=O)c2c1` [compound 45, 2-hydroxy-N-(4-oxo-3-(3-(2-(trifluoromethyl)phenoxy)propyl)-3,4-dihydroquinazolin-6-yl)acetamide], 120 nM.
To `O=C(Nc1ccc2ncn(CCCOc3ccccc3F)c(=O)c2c1)OCc1ccccc1` [compound 46, benzyl 3-(3-(2-fluorophenoxy)propyl)-4-oxo-3,4-dihydroquinazolin-6-ylcarbamate] belongs 490 nM; to `CC(=O)OCC(=O)Nc1ccc2ncn(CCCOc3ccccc3F)c(=O)c2c1` [compound 47, 2-(3-(3-(2-fluorophenoxy)propyl)-4-oxo-3,4-dihydroquinazolin-6-ylamino)-2-oxoethyl acetate], 9800 nM.
To `O=C(CO)Nc1ccc2c(=O)n(CCCOc3ccccc3F)cnc2c1` [compound 48, N-(3-(3-(2-fluorophenoxy)propyl)-4-oxo-3,4-dihydroquinazolin-7-yl)-2-hydroxyacetamide] belongs 11000 nM.
Regarding `N#Cc1ccccc1OCCCn1cnc2ccc(NC(=O)OCc3ccccc3)cc2c1=O` [compound 49, benzyl 3-(3-(2-cyanophenoxy)propyl)-4-oxo-3,4-dihydroquinazolin-6-ylcarbamate], 480 nM corresponded to half-maximal inhibition (IC50).
To `O=C(Nc1ccc2c(=O)n(CCCOc3cc(Cl)ccc3Cl)cnc2c1)OCc1ccccc1` [compound 50, benzyl 3-(3-(2,5-dichlorophenoxy)propyl)-4-oxo-3,4-dihydroquinazolin-7-ylcarbamate] belongs 450 nM; to `O=C(CO)Nc1ccc2c(=O)n(CCCOc3cc(Cl)ccc3Cl)cnc2c1` [compound 51, N-(3-(3-(2,5-dichlorophenoxy)propyl)-4-oxo-3,4-dihydroquinazolin-7-yl)-2-hydroxyacetamide], 86 nM; to `Cc1ccccc1OCCCn1cnc2ccc(NC(=O)OCc3ccccc3)cc2c1=O` [compound 52, benzyl 4-oxo-3-(3-(o-tolyloxy)propyl)-3,4-dihydroquinazolin-6-ylcarbamate], 44 nM.
